The subject of one data set is β-adreno-receptor. In words: Inhibition of histamine-induced bronchoconstriction (bronchial resistance, Konzett-Rossler method) in anesthetized dogs; β-adreno-receptor stimulating activity. It counts as in vivo, dog (male hybrid adult dogs). The settings on record: femoral vein, 1 minute before histamine 10 mg/kg. Here is the method: The stimulating activity of the compounds of this invention on β-adreno-receptor was determined as follows:
Male hybrid adult dogs, weighing 10 to 15 kg were anesthesized with 30 mg/kg of body weight of sodium pentobarbital administered intravenously. Each of the anesthesized dogs were secured on its back and a cannula was inserted into the trachea. Artificial respiration was conducted using a device according to the Konzett-Rossler method (Konzett H. & Rossler R., "Versuchsanordnug zu Untersuchungen an der Bronchial Moskolatur", Arch. Exp. Path., Pharmack, 195, 71 - 74, 27 - 40 (1940)). The volume of the overflowing air at the time of inhalation was measured through a pneumotachometer to determine the bronchial resistance and the values obtained were recorded on a polygraph.
In the above experiment, histamine was employed as a bronchoconstrictor at a dosage level of 10 mg/kg of body weight, and an aqueous solution containing each of the test compounds and controls shown in Table 1 below was then administered to each of the anesthesized dogs through the femoral vein at various dosage levels shown in Table 1 below 1 minute before the administration of the histamine. Sodium pentobarbital was infused during the experiment at a dosage level of 4 mg/kg of body weight/hr using an automatic injector in order to inhibit spontaneous respiration and to keep the anesthetic condition constant over the test period.

The next data set can be described thus: in vivo. The settings on record: rat, male rats (dd strain), fasted 12 hours.

For orientation: LD50 means the dose at which mortality reaches 50%. Low values mean greater toxicity, high ones lower toxicity.

Counter-ions that a name gives are not always drawn.

On to `CC(C)NCC(O)c1ccc(O)c(O)c1` (stereo not drawn) [Isoproterenol], for which the “Bronchial Resistance (%)” value came out at 16.6% in the data set on β-adreno-receptor (dose 0.03 ug/Kg) and 100% in the data set with β-adreno-receptor (dose 1.0 ug/Kg).
With `CC(C)NCC(O)c1cc(O)cc(O)c1` (stereo not drawn) [Metaproterenol Sulfate (Arotec)], the “Bronchial Resistance (%)” value with β-adreno-receptor (dose 0.01 ug/Kg) turned out to be 0%; in the data set with β-adreno-receptor (dose 0.03 ug/Kg), 0%; with β-adreno-receptor (dose 0.1 ug/Kg) it was 2.7%; with β-adreno-receptor (dose 0.3 ug/Kg), 11.1%; in the data set with β-adreno-receptor (dose 1.0 ug/Kg) it was 27.5%; with β-adreno-receptor (dose 3.0 ug/Kg) it was 50.0%. Also, the “Bronchial Resistance (%)” value was determined as 88.3% in the data set with β-adreno-receptor (dose 10 ug/Kg) and 100% in the data set on β-adreno-receptor (dose 30 ug/Kg).
Take `CCC(NC(C)C)C(O)c1ccc(O)c2c1CCC(=O)N2` (stereo not drawn) [5-(1-Hydroxy-2-isopropylamino)butyl-8-hydroxy-3,4-dihydrocarbostyril]: the LD50 in “in vivo” (iv, I.v.) worked out at 81.5 mg/kg; in the data set “in vivo” (po), 830 mg/kg.
As to `CC(C)NCC(O)c1ccc(O)c2ncccc12` (stereo not drawn) [Quinterenol], the “Bronchial Resistance (%)” value in the data set on β-adreno-receptor (dose 0.01 ug/Kg), with β-adreno-receptor (dose 0.03 ug/Kg), with β-adreno-receptor (dose 0.1 ug/Kg), in the data set on β-adreno-receptor (dose 0.3 ug/Kg), with β-adreno-receptor (dose 1.0 ug/Kg) and in the data set on β-adreno-receptor (dose 3.0 ug/Kg) was 0% each time. Further, the “Bronchial Resistance (%)” value with β-adreno-receptor (dose 10 ug/Kg) turned out to be 0%; with β-adreno-receptor (dose 30 ug/Kg), 7.6%; in the data set on β-adreno-receptor (dose 100 ug/Kg) it was 15.3%.
With `CC(C)(C)NCC(O)c1ccc(O)c(CO)c1` (stereo not drawn) [Salbutamol], the “Bronchial Resistance (%)” value in the data set with β-adreno-receptor (dose 0.01 ug/Kg) amounted to 0%; with β-adreno-receptor (dose 0.03 ug/Kg), 0%; with β-adreno-receptor (dose 0.1 ug/Kg) it was 16.6%; in the data set on β-adreno-receptor (dose 0.3 ug/Kg) it was 33.3%; in the data set with β-adreno-receptor (dose 1.0 ug/Kg), 66.6%; with β-adreno-receptor (dose 3.0 ug/Kg), 100%.

For the origin of these results see patent publication US3994901A, “5-[1-Hydroxy-2-(s ubstituted-amino)]alkyl-8-hydroxy-3,4-dihydrocarbostyril derivatives” (Otsuka Pharmaceutical Company Limited, priority 1974, dated 1976).
